18 compounds from PubChem BioAssay (NCI) can be followed below.

Holding throughout (assay): DTP human tumour cell line panel, 48 h
Test [1] has as its system SK-OV-3 ovarian.
For test [2], the system named is NCI-H522 lung.
In test [3] the test system is SF-268 CNS.
Test [4] has as its system TK-10 renal.
In test [5] the test system is MALME-3M melanoma.
Test [6] concerns LOX IMVI melanoma.
Test [7] relates to CCRF-CEM leukemia.
In test [8] the test system is HT29 colon.
In test [9] the test system is SNB-19 CNS.
Test [10] concerns NCI-H460 lung.

What is called TGI is the concentration giving total growth inhibition. As a reminder, the GI50 is the concentration giving 50% growth inhibition.

Several values for one entry are separate records, joined by “and”; a condition that tells them apart may be missing. Equal entries are not always repeated.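 In this assay, cells in 96-well plates receive the compound at five concentrations for 48 hours. Endpoints are linearly interpolated between the surrounding concentrations. The concentration for 50% growth inhibition is given as GI50. TGI denotes the concentration required for complete inhibition of growth.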

Take `COc1ccc(CNc2cc(OC)c(OC)c(OC)c2)cc1`: the concentration for total growth inhibition (TGI) in [1] was more than 90.5 µM; in test [2] it was 31 µM; in test [3], 28.6 µM; in test [4], more than 100 µM; in [5], more than 100 µM; in test [6], more than 100 µM. The concentration for total growth inhibition (TGI) in test [7] is more than 100 µM; in test [8] it was more than 100 µM; in test [9], more than 100 µM; in test [10] it was more than 30 µM.
For the compound `CCOC(=O)/C=C(/C(=O)OCC)n1cc(Cl)c(=O)n(CC(=O)OCC)c1=O`, the GI50 was 41.4 µM in test [1]; 24 µM in test [3]; 11.5 µM in [4]; 15.2 µM in test [6]; 2.12 µM in [7]; 22.5 µM in test [8]. The values for the GI50 in test [9] and in [10] were 32.7 µM and 35.1 µM, respectively. Also, the TGI in [1] was more than 100 µM; in test [2], 2.88 µM; in test [3], 12.2 µM and 41.4 µM; in [4] it was 8.29 µM and 23.8 µM; in test [5] it was 10.3 µM; in [6], 8.17 µM and 34.5 µM. For the same compound, the TGI in test [7] is 1.13 µM and 5.65 µM; in test [8] it was 9.38 µM and 52 µM; in [9], more than 100 µM; in [10] it was 25 µM and > 100 µM.
Take `CCNCCNc1cc(-c2ccc(C(=O)OC)cc2)c(C#N)c2nc3ccccc3n12`: the GI50 is 2 µM in test [1]; 1.72 µM in test [2]; 2.54 µM in test [3]; 1.91 µM in test [4]; 1.95 µM in [5]; 1.53 µM in [6]. For the same compound, the GI50 in test [7] is 0.505 µM; in [8], 1.6 µM; in test [9], 4.57 µM; in [10], 1.42 µM. Further, the concentration for total growth inhibition (TGI) was determined as 4.8 µM in [1]; 4.52 µM in test [2]; 16.2 µM in test [3]; 4.44 µM in test [4]; 3.69 µM in test [5]; 2.99 µM in test [6]. For the same compound, the TGI in [7] is 3.55 µM; in test [8], 4.47 µM; in test [9] it was more than 100 µM; in test [10] it was 3.31 µM.
Take `O=C(Nc1ccc(N2CCNCC2)cc1)c1[nH]ncc1Nc1cc(Oc2ccccc2)ncn1`: the GI50 was 1.99 µM in test [1]; 2.14 µM in test [2]; 3.57 µM in test [3]; 2.07 µM in test [4]; 1.98 µM in [5]; 0.22 µM in test [6]. Also, the GI50 was 1.83 µM in [7], 1.78 µM in [8], 3.19 µM in test [9] and 0.635 µM in test [10]. The total growth inhibition concentration (TGI) was 4.84 µM in test [1]; 8.19 µM in [2]; 14.4 µM in test [3]; 4.67 µM in test [4]; 4.93 µM in test [5]; 0.54 µM in test [6]. The TGI in test [7] was found to be 4.73 µM; in [8] it was 4.53 µM; in test [9], 12.5 µM; in test [10], 2.3 µM.
Take `Cc1ccc2c(c1)C(=O)/C(=C/c1ncc([N+](=O)[O-])n1C)O2`: the GI50 is 2.53 µM in test [1]; 1.5 µM in [2]; 1.93 µM in test [3]; 3.19 µM in test [4]; 1.8 µM in [5]; 0.404 µM in test [6]. Further, the 50% growth inhibitory concentration (GI50) is 0.324 µM in test [7], 0.491 µM in test [8], 2.36 µM in [9] and 2.05 µM in test [10]. In addition, the TGI in test [1] is 7.24 µM; in [2], 3.38 µM; in test [3], 5.53 µM; in [4] it was 11 µM; in test [5], 4.37 µM; in test [6] it was 1.23 µM. Moreover, the total growth inhibition concentration (TGI) in test [7] was 2.95 µM; in [8], 3.36 µM; in test [9] it was more than 25.6 µM; in [10], 5.97 µM.
Consider `CC1=C(C(=O)Nc2ccc([N+](=O)[O-])cc2)C(c2ccc(N(C)C)cc2)C(C(=O)Nc2ccc([N+](=O)[O-])cc2)=C(C)N1`, for which the TGI in test [1] worked out at 80 µM; in [2] it was 25.6 µM; in test [3], 96.1 µM; in test [4], 92.2 µM; in test [5] it was 52.6 µM; in test [6] it was 23.5 µM. Also, the TGI in [7] was 60.7 µM; in test [8] it was 46.9 µM; in test [9], more than 100 µM; in test [10] it was 45.3 µM.
With `Cc1cc(I)cc(CNCCCN2CCSCC2)c1O`, the GI50 was 17.9 µM in test [1]; 18.4 µM in test [2]; 17.2 µM in [3]; 14.2 µM in test [4]; 17.3 µM in test [5]; 14.6 µM in test [6]. For the same compound, the GI50 in test [7] was 10.4 µM; in [8], 14 µM; in [9] it was 18.4 µM; in test [10], 14.3 µM. The TGI in test [1] turned out to be 36.4 µM; in test [2] it was 36.5 µM; in test [3], 36.4 µM; in [4], 29.3 µM; in test [5], 33.9 µM; in test [6], 28.4 µM. The TGI was determined as 39.9 µM in [7], 27.8 µM in [8], 41 µM in [9] and 29.5 µM in test [10].
For `OCc1ccc2[n+](c1)CCC1c3ccccc3NC21` (stereo not drawn), the TGI in test [1], in test [2], in [3], in test [4], in test [5] and in test [6] was more than 300 µM throughout. The TGI in [7], in [8], in test [9] and in test [10] was more than 300 µM each time.
As for `O=NN(Cc1ccc(Cl)cc1)C(C(=O)O)c1ccccc1` (stereo not drawn), the TGI in test [1], in [2], in test [3], in [4], in test [5] and in test [6] was more than 100 µM in each case. The TGI in test [7], in test [8], in [9] and in [10] was more than 100 µM throughout.
As for `COc1ccc(C2=NN(C(=O)c3cc(OC)c(OC)c(OC)c3)C(c3ccc(C#N)cc3)C2)cc1OC` (stereo not drawn), the GI50 in test [1] was 0.872 µM; in test [2], 0.222 µM; in [3] it was 2.52 µM; in [4] it was 3.65 µM; in [5] it was 14.6 µM; in test [6], 2.24 µM. Besides, the GI50 in test [7] is 3.03 µM; in test [8], 2.42 µM; in [9] it was 3.02 µM; in test [10] it was 2.01 µM. In addition, the TGI in test [1] was 8.32 µM; in [2], 1.24 µM; in test [3], more than 66.6 µM; in test [4], more than 45 µM; in [5] it was more than 78.9 µM; in test [6], 16.3 µM. For the same compound, the TGI in test [7] is more than 100 µM; in [8] it was more than 32.1 µM; in test [9], more than 68.2 µM; in [10] it was more than 100 µM.
With `O=C(O)CCCCC(CCSCc1ccccc1)SCc1ccccc1` (stereo not drawn), the GI50 in test [1] is more than 88.7 µM; in test [2] it was 34.1 µM; in test [3] it was more than 67.2 µM; in test [4], more than 73.4 µM; in [5] it was 87.7 µM; in test [6] it was 48.2 µM. Moreover, the GI50 in [7] is 37 µM; in test [8], 65.3 µM; in test [9], 42.9 µM; in test [10] it was 33.4 µM. Moreover, the TGI in test [1], in test [2], in test [3], in test [4], in [5] and in test [6] was more than 100 µM in each case. The total growth inhibition concentration (TGI) in [7], in test [8], in test [9] and in test [10] was more than 100 µM in each case.
`CC1CCC2(C(=O)O)CCC3(C)C(=CCC4C5(C)CC(O)C(O)C(C)(CO)C5C(O)CC43C)C2C1C` (stereo not drawn): the TGI in [1] was more than 100 µM; in [2], 33.9 µM; in test [3], more than 87.2 µM; in test [4], more than 100 µM; in [5] it was more than 100 µM; in [6] it was 42.3 µM. For the same compound, the TGI is 53.3 µM in test [7], more than 100 µM in [8], 56.1 µM in [9] and more than 100 µM in test [10].
With `O=C(N/N=C/c1ccccc1O)c1cccc([N+](=O)[O-])c1`, the concentration for total growth inhibition (TGI) was more than 78.3 µM in test [1]; more than 100 µM in test [2]; more than 100 µM in [3]; more than 84.6 µM in [4]; more than 100 µM in test [5]; more than 81.4 µM in test [6]. For the same compound, the TGI in test [7], in [8], in test [9] and in test [10] was more than 100 µM in each case.
With `CC(C)CC(=O)[O-].CC(C)CC(=O)[O-].N.N.N.N.[Co+3].[O-][Cl+3]([O-])([O-])[O-]`, the GI50 in test [1] was more than 100 µM; in test [2], 51 µM and 90 µM; in test [3], more than 100 µM; in [4], more than 100 µM; in [5] it was more than 100 µM; in test [6] it was more than 100 µM. The GI50 in [7], in test [8], in [9] and in test [10] was more than 100 µM in each case. Also, the TGI in test [1], in test [2], in [3], in [4], in [5] and in test [6] was more than 100 µM in each case. For the same compound, the total growth inhibition concentration (TGI) in test [7], in test [8], in [9] and in [10] was more than 100 µM throughout.
With `CC1=C(C(=O)Nc2ccc3[nH]ncc3c2)C(c2ccc3ccccc3c2)CC(=O)N1` (stereo not drawn), the GI50 in test [1] is more than 25 µM; in test [2], 13.8 µM; in test [3], 11.5 µM; in test [4], 8.73 µM; in [5], 11 µM; in test [6] it was 13.2 µM. Besides, the GI50 was more than 25 µM in [7], 20 µM in [8], more than 25 µM in test [9] and more than 25 µM in [10]. Moreover, the TGI in [1], in test [2], in test [3], in [4], in test [5] and in test [6] was more than 25 µM in each case. The TGI in test [7], in test [8], in [9] and in test [10] was more than 25 µM throughout.
For the compound `COc1ccc2[nH]c3c(C)c4c(c(C)c3c2c1)CN(C)CC4`, the concentration for total growth inhibition (TGI) in test [1] came to 30 µM; in [2], 33.4 µM; in test [3] it was 48.3 µM; in test [4], 42.9 µM; in [5], 35 µM; in test [6] it was 27.6 µM. Also, the concentration for total growth inhibition (TGI) in test [7] is more than 100 µM; in test [8], 20.2 µM; in test [9], 48.5 µM; in test [10] it was 24.8 µM.
Turning to `COC(=O)C[C@H]1CCC2(OCCO2)[C@]1(C)C(=O)OC`, the TGI in test [1], in test [2], in test [3], in [4], in test [5] and in [6] was more than 100 µM in each case. Further, the total growth inhibition concentration (TGI) in test [7], in [8], in [9] and in test [10] was more than 100 µM each time.
In the case of `COc1cnc2cc(C(=O)O)c3c([N+](=O)[O-])cccc3c2c1`, the TGI in test [1], in test [2], in test [3], in test [4], in test [5] and in test [6] was more than 100 µM throughout. For the same compound, the concentration for total growth inhibition (TGI) in test [7], in test [8], in test [9] and in [10] was more than 100 µM in each case.
